Calls of active or inactive are those of the source. No cut-off for these calls is given here.
What follows are compounds tested against T1, Peroxisome proliferator-activated receptor alpha (Mus musculus) (UniProt P23204) (assay: Transactivation of mouse recombinant PPARalpha expressed in mouse NIH3T3 cells at 5 uM by PPRE activation based dual luciferase reporter gene assay relative to control).
T1 sequence (whole entry): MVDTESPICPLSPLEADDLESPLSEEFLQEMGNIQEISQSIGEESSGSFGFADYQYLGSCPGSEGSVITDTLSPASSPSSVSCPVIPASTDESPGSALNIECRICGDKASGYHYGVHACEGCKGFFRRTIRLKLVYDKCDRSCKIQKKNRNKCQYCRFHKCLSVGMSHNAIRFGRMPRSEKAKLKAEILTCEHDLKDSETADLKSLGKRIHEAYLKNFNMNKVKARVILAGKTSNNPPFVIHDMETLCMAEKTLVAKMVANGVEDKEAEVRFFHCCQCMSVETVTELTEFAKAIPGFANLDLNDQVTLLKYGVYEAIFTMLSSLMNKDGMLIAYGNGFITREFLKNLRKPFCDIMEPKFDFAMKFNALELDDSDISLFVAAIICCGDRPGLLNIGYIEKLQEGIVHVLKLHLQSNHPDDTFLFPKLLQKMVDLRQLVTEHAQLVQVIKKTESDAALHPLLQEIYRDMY
Assay type: cell-based

Structure (SMILES)	Activity
CCCCCCCCCCCCCC[C@@H](O)[C@H](O)[C@@H](CO)NC(=O)[C@H](Cc1ccccc1)NC(=O)OC(C)(C)C	Active
CCCCCCCCCCCCCC[C@H](O)[C@H](O)[C@@H](CO)NC(=O)[C@H](Cc1ccccc1)NC(=O)OC(C)(C)C	Active
CCCCCCCCCCCCCC[C@@H](O)[C@@H](O)[C@@H](CO)NC(=O)CCCCCCCCCCCCC	Active
CCCCCCCCCCCCCC[C@H](O)[C@@H](O)[C@H](CO)NC(=O)[C@H](Cc1ccccc1)NC(=O)OC(C)(C)C	Active
CCCCCCCCCCCCCC[C@H](O)[C@H](O)[C@H](CO)NC(=O)CCCCCCCCCCCCC	Active
CCCCCCCCCCCCCC[C@@H](O)[C@H](O)[C@H](CO)NC(=O)CCCCCCCCCCCCC	Active

What follows are compounds tested against T2, Peroxisome proliferator-activated receptor gamma (Mus musculus) (UniProt P37238) (assay: Transactivation of mouse recombinant PPARgamma expressed in mouse NIH3T3 cells by PPRE activation based dual luciferase reporter gene assay relative to control).
T2 sequence (whole entry): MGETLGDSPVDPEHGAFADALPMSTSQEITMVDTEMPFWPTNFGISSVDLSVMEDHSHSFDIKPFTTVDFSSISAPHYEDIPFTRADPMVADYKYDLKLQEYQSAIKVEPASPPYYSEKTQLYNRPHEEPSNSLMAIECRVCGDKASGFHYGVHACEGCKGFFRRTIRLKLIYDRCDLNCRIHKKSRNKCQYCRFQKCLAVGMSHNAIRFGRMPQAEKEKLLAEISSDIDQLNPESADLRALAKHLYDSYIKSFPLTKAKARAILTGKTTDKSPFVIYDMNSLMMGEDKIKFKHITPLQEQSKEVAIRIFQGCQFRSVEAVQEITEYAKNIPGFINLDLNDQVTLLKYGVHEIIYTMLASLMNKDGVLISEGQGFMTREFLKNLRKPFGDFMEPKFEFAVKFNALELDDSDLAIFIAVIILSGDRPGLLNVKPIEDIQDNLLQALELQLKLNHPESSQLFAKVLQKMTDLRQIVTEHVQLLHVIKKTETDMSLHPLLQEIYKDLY
Assay type: cell-based

Structure (SMILES)	Activity
CCCCCCCCCCCCCC[C@@H](O)[C@H](O)[C@@H](CO)NC(=O)[C@H](Cc1ccccc1)NC(=O)OC(C)(C)C	Active
CC1(COc2ccc(CC3SC(=O)NC3=O)cc2)CCCCC1 (centres undefined)	Active
CCCCCCCCCCCCCC[C@H](O)[C@H](O)[C@@H](CO)NC(=O)[C@H](Cc1ccccc1)NC(=O)OC(C)(C)C	Active
CCCCCCCCCCCCCC[C@@H](O)[C@@H](O)[C@@H](CO)NC(=O)CCCCCCCCCCCCC	Active
CCCCCCCCCCCCCC[C@H](O)[C@@H](O)[C@H](CO)NC(=O)[C@H](Cc1ccccc1)NC(=O)OC(C)(C)C	Active
CCCCCCCCCCCCCC[C@@H](O)[C@@H](O)[C@@H](CO)NC(=O)CBr	Active
CCCCCCCCCCCCCC[C@H](O)[C@H](O)[C@H](CO)NC(=O)CCCCCCCCCCCCC	Active
CCCCCCCCCCCCCC[C@@H](O)[C@H](O)[C@H](CO)NC(=O)CCCCCCCCCCCCC	Active

These compounds were tested against T3, Peroxisome proliferator-activated receptor delta (Mus musculus) (UniProt P35396) (assay: Transactivation of mouse recombinant PPARbeta expressed in mouse NIH3T3 cells by PPRE activation based dual luciferase reporter gene assay relative to control).
T3 sequence (whole entry): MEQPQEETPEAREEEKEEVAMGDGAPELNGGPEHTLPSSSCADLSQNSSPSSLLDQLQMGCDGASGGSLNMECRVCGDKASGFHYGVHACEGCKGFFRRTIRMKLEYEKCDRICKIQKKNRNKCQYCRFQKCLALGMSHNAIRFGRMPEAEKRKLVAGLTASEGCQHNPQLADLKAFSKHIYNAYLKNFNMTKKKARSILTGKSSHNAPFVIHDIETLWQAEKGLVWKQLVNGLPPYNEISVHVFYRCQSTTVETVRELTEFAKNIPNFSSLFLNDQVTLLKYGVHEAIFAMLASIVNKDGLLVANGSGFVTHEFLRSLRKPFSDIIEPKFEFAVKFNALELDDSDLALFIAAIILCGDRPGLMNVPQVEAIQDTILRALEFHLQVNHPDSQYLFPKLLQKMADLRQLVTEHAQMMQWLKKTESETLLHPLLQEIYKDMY
Assay type: cell-based

Structure (SMILES)	Activity
CCCCCCCCCCCCCC[C@@H](O)[C@H](O)[C@@H](CO)NC(=O)[C@H](Cc1ccccc1)NC(=O)OC(C)(C)C	Dose-dependent effect
CCCCCCCCCCCCCC[C@H](O)[C@H](O)[C@@H](CO)NC(=O)[C@H](Cc1ccccc1)NC(=O)OC(C)(C)C	Dose-dependent effect
CCCCCCCCCCCCCC[C@@H](O)[C@@H](O)[C@@H](CO)NC(=O)CCCCCCCCCCCCC	Dose-dependent effect
CCCCCCCCCCCCCC[C@H](O)[C@@H](O)[C@H](CO)NC(=O)[C@H](Cc1ccccc1)NC(=O)OC(C)(C)C	Dose-dependent effect
CCCCCCCCCCCCCC[C@H](O)[C@H](O)[C@H](CO)NC(=O)CCCCCCCCCCCCC	Dose-dependent effect
CCCCCCCCCCCCCC[C@@H](O)[C@H](O)[C@H](CO)NC(=O)CCCCCCCCCCCCC	Dose-dependent effect

Each compound was assayed against T1, Peroxisome proliferator-activated receptor alpha (Mus musculus) (assay: Transactivation of mouse recombinant PPARalpha expressed in mouse NIH3T3 cells at 0.1 uM to 10 uM by PPRE activation based dual luciferase reporter gene assay relative to control).
Assay type: cell-based

Structure (SMILES)	Activity
CCCCCCCCCCCCCC[C@@H](O)[C@H](O)[C@@H](CO)NC(=O)[C@H](Cc1ccccc1)NC(=O)OC(C)(C)C	Active
CCCCCCCCCCCCCC[C@H](O)[C@H](O)[C@@H](CO)NC(=O)[C@H](Cc1ccccc1)NC(=O)OC(C)(C)C	Active
Cc1cccc(Nc2cc(Cl)nc(SCC(=O)O)n2)c1C	Active
CCCCCCCCCCCCCC[C@H](O)[C@@H](O)[C@H](CO)NC(=O)[C@H](Cc1ccccc1)NC(=O)OC(C)(C)C	Active
